Laboratory results taken from patent publication US11771709B2, “ALK protein degradation agent and anti-tumor application thereof” (ShanghaiTech University, priority 2017, dated 2023).

What was measured:
SR (NPM-ALK) cells = assay: Growth inhibition IC50 in ALCL SR cells (CCK8/WST, 72 hours); type: cell-based; conditions: SR cells, WST
Description: SR (NPM-ALK) and NCI-H2228 (EML4-ALK, V3) cells were purchased from ATCC. […] All Cells were cultured in RPMI1640 medium with 10% FBS and Penicillin-Streptomycin in 37° C. incubator with 5% CO2.
Cells were seeded at specific density in 96 well plates one day before treatment. […] Viable cells were measured via CCK8 reagent and IC50s were calculated via Prism Graphad. Experiments were repeated at least three times.

[1] = biological target: T1, ALK protein in H3122 (EML4-ALK) cells (Homo sapiens, UniProt Q9UM73); assay: Western blot of ALK protein level (degradation, DC50), ALK phosphorylation and downstream signaling in H3122 cells; type: cell-based; conditions: for DC50: ALK protein degradation in H3122 cells; for phosphorylation of AKT and ERK / ALK protein level / degradation: H3122 cells, western blot; for ALK protein level / degradation: up to 500 nM
T1 construct: EML4 (Echinoderm microtubule-associated protein-like 4, Q9HC35) fusion partner, variant 1; host or cells: NCI-H3122 lung adenocarcinoma cells; the other entry of the earlier key: EML4 (Q9HC35, Echinoderm microtubule-associated protein-like 4)
T1 sequence (Q9UM73 with tags, fused parts or gaps): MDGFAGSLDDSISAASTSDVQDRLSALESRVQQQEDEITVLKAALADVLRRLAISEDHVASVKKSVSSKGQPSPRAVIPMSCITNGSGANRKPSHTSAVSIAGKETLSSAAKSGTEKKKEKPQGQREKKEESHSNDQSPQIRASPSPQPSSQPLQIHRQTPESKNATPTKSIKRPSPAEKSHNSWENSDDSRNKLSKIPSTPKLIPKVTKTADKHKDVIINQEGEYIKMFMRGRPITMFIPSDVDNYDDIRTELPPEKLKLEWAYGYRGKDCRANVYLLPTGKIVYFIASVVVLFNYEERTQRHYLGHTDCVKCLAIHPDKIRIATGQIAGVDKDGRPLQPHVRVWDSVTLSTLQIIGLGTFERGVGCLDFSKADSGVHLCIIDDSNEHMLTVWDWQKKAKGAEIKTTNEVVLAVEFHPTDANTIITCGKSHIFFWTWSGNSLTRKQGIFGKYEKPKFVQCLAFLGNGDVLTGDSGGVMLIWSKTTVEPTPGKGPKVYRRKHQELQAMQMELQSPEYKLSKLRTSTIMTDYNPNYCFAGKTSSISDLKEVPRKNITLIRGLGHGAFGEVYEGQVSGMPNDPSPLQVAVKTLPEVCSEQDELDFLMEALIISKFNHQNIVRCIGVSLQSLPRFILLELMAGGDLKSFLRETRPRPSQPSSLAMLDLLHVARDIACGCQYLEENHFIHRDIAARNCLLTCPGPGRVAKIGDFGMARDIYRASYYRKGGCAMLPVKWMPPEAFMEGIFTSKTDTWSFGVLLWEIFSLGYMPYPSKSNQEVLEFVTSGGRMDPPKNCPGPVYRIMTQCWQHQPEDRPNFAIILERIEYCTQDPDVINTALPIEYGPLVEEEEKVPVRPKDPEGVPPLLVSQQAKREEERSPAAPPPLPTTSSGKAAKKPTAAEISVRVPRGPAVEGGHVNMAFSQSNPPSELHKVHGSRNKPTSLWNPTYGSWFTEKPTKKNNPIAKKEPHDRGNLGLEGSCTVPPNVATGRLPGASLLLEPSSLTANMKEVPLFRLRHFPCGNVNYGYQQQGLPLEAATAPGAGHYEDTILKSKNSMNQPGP
Description: Cancer cells were seeded in 1 ml RPMI1640 medium in 24-well plate at the density of 3×10^5 or 1.5×10^5 cells/ml. […] Then cells were washed twice with PBS and lyzed in RIPA lysis buffer with Halt Proteinase and Phosphotase inhibitor. Equal amount of proteins were loaded to run SDS-PAGE gels after denature. The gels were blotted to PVDF membrane. After incubating with first and secondary antibodies, the images were developed using SuperSignal West Pico Chemiluminescent Substrate.
DC50 (concentration required to degrade protein by half) were calculated based on the intensity from western blot, and data were analyzed via Prism GraphPad with non-linear regression.

[2] = 72 h, Brigatinib-based PROTAD molecules (Table 3)
[3] = Alectinib based ALK PROTAD compounds (Table 4)

| SMILES | IC50 (SR (NPM-ALK) cells; [2]) [µM] | DC50 [1] [nM] | IC50 (SR (NPM-ALK) cells; [3]) [µM] | phosphorylation of AKT and ERK [1] | ALK protein level / degradation [1] |
| --- | --- | --- | --- | --- | --- |
| COc1cc(N2CCC(NC(=O)CCOCCOCCNc3cccc4c3C(=O)N(C3CCC(=O)NC3=O)C4=O)CC2)ccc1Nc1ncc(Cl)c(Nc2ccccc2P(C)(C)=O)n1 (stereo not drawn) [SIAIS151114, N-(1-(4-((5-chloro-4-((2-(dimethylphosphoryl)phenyl)amino)pyrimidin-2-yl)amino)-3-methoxyphenyl)piperidin-4-yl)-3-(2-(2-((2-(2,6-dioxopiperidin-3-yl)-1,3-dioxoisoindolin-4-yl)amino)ethoxy)ethoxy)propenamide] | 0.0109 ± 0.0075 | 100 to 500 | – | – | – |
| COc1cc(N2CCC(NC(=O)CCOCCOCCOCCNc3cccc4c3C(=O)N(C3CCC(=O)NC3=O)C4=O)CC2)ccc1Nc1ncc(Cl)c(Nc2ccccc2P(C)(C)=O)n1 (stereo not drawn) [SIAIS151115, N-(1-(4-((5-chloro-4-((2-(dimethylphosphoryl)phenyl)amino)pyrimidin-2-yl)amino)-3-methoxyphenyl)piperidin-4-yl)-3-(2-(2-(2-((2-(2,6-dioxopiperidin-3-yl)-1,3-dioxoisoindolin-4-yl)amino)ethoxy)ethoxy)ethoxy)propenamide] | 0.008 ± 0.0032 | 100 to 500 | – | – | – |
| COc1cc(N2CCC(NC(=O)CCOCCOCCOCCOCCNc3cccc4c3C(=O)N(C3CCC(=O)NC3=O)C4=O)CC2)ccc1Nc1ncc(Cl)c(Nc2ccccc2P(C)(C)=O)n1 (stereo not drawn) [SIAIS151116, N-(1-(4-((5-chloro-4-((2-(dimethylphosphoryl)phenyl)amino)pyrimidin-2-yl)amino)-3-methoxyphenyl)piperidin-4-yl)-1-((2-(2,6-dioxopiperidin-3-yl)-1,3-dioxoisoindolin-4-yl)amino)-3,6,9,12-tetraoxapentadecan-15-amide] | 0.0153 ± 0.0098 | 100 to 500 | – | – | – |
| COc1cc(N2CCC(NC(=O)CCCCNc3cccc4c3C(=O)N(C3CCC(=O)NC3=O)C4=O)CC2)ccc1Nc1ncc(Cl)c(Nc2ccccc2P(C)(C)=O)n1 (stereo not drawn) [SIAIS151119, N-(1-(4-((5-chloro-4-((2-(dimethylphosphoryl)phenyl)amino)pyrimidin-2-yl)amino)-3-methoxyphenyl)piperidin-4-yl)-5-((2-(2,6-dioxopiperidin-3-yl)-1,3-dioxoisoindolin-4-yl)amino)pentanamide] | 0.0016 ± 0.001 | 100 to 500 | – | – | – |
| COc1cc(N2CCC(NC(=O)CNc3cccc4c3C(=O)N(C3CCC(=O)NC3=O)C4=O)CC2)ccc1Nc1ncc(Cl)c(Nc2ccccc2P(C)(C)=O)n1 (stereo not drawn) [SIAIS151120, N-(1-(4-((5-chloro-4-((2-(dimethylphosphoryl)phenyl)amino)pyrimidin-2-yl)amino)-3-methoxyphenyl)piperidin-4-yl)-2-((2-(2,6-dioxopiperidin-3-yl)-1,3-dioxoisoindolin-4-yl)amino)acetamide] | 0.0114 ± 0.0078 | 20 to 100 | – | – | – |
| COc1cc(N2CCC(NC(=O)CCNc3cccc4c3C(=O)N(C3CCC(=O)NC3=O)C4=O)CC2)ccc1Nc1ncc(Cl)c(Nc2ccccc2P(C)(C)=O)n1 (stereo not drawn) [SIAIS151121, N-(1-(4-((5-chloro-4-((2-(dimethylphosphoryl)phenyl)amino)pyrimidin-2-yl)amino)-3-methoxyphenyl)piperidin-4-yl)-3-((2-(2,6-dioxopiperidin-3-yl)-1,3-dioxoisoindolin-4-yl)amino)propenamide] | 0.0204 ± 0.0085 | 100 to 500 | – | – | – |
| COc1cc(N2CCC(NC(=O)CCOCCOCCC(=O)N[C@H](C(=O)N3C[C@H](O)C[C@H]3C(=O)NCc3ccc(-c4scnc4C)cc3)C(C)(C)C)CC2)ccc1Nc1ncc(Cl)c(Nc2ccccc2P(C)(C)=O)n1 [SIAIS151124, (2S,4R)-1-((S)-2-(3-(2-(3-((1-(4-((5-chloro-4-((2-(dimethylphosphoryl)phenyl)amino)pyrimidin-2-yl)amino)-3-methoxyphenyl)piperidin-4-yl)amino)-3-oxopropoxy)ethoxy)propanamido)-3,3-dimethylbutanoyl)-4-hydroxy-N-(4-(4-methylthiazol-5-yl)benzyl)pyrrolidine-2-carboxamide] | 0.0769 ± 0.0159 | 100 to 500 | – | – | – |
| COc1cc(N2CCC(NC(=O)CCOCCOCCOCCC(=O)N[C@H](C(=O)N3C[C@H](O)C[C@H]3C(=O)NCc3ccc(-c4scnc4C)cc3)C(C)(C)C)CC2)ccc1Nc1ncc(Cl)c(Nc2ccccc2P(C)(C)=O)n1 [SIAIS151125, (2S,4R)-1-((S)-2-(tert-butyl)-16-((1-(4-((5-chloro-4-((2-(dimethylphosphoryl)phenyl)amino)pyrimidin-2-yl)amino)-3-methoxyphenyl)piperidin-4-yl)amino)-4,16-dioxo-7,10,13-trioxa-3-azahexadecanoyl)-4-hydroxy-N-(4-(4-methylthiazol-5-yl)benzyl)pyrrolidine-2-carboxamide] | 0.0619 ± 0.0305 | 100 to 500 | – | – | – |
| COc1cc(N2CCC(NC(=O)CCOCCOCCOCCOCCC(=O)N[C@H](C(=O)N3C[C@H](O)C[C@H]3C(=O)NCc3ccc(-c4scnc4C)cc3)C(C)(C)C)CC2)ccc1Nc1ncc(Cl)c(Nc2ccccc2P(C)(C)=O)n1 [SIAIS151126, N1-(1-(4-((5-chloro-4-((2-(dimethylphosphoryl)phenyl)amino)pyrimidin-2-yl)amino)-3-methoxyphenyl)piperidin-4-yl)-N16-((S)-1-((2S,4R)-4-hydroxy-2-((4-(4-methylthiazol-5-yl)benzyl)carbamoyl)pyrrolidin-1-yl)-3,3-dimethyl-1-oxobutan-2-yl)-4,7,10,13-tetraoxahexadecanediamide] | 0.0319 ± 0.0119 | 100 to 500 | – | – | – |
| COc1cc(N2CCC(NC(=O)CCOCCOCCOCCOCCOCCC(=O)N[C@H](C(=O)N3C[C@H](O)C[C@H]3C(=O)NCc3ccc(-c4scnc4C)cc3)C(C)(C)C)CC2)ccc1Nc1ncc(Cl)c(Nc2ccccc2P(C)(C)=O)n1 [SIAIS151127, N1-(1-(4-((5-chloro-4-((2-(dimethylphosphoryl)phenyl)amino)pyrimidin-2-yl)amino)-3-methoxyphenyl)piperidin-4-yl)-N19-((S)-1-((2S,4R)-4-hydroxy-2-((4-(4-methylthiazol-5-yl)benzyl)carbamoyl)pyrrolidin-1-yl)-3,3-dimethyl-1-oxobutan-2-yl)-4,7,10,13,16-pentaoxanonadecanediamide] | 0.0364 ± 0.0235 | 20 to 100 | – | – | – |
| COc1cc(N2CCC(NC(=O)COCCOCC(=O)N[C@H](C(=O)N3C[C@H](O)C[C@H]3C(=O)NCc3ccc(-c4scnc4C)cc3)C(C)(C)C)CC2)ccc1Nc1ncc(Cl)c(Nc2ccccc2P(C)(C)=O)n1 [SIAIS151128, (2S,4R)-1-((S)-2-(2-(2-(2-((1-(4-((5-chloro-4-((2-(dimethylphosphoryl)phenyl)amino)pyrimidin-2-yl)amino)-3-methoxyphenyl)piperidin-4-yl)amino)-2-oxoethoxy)ethoxy)acetamido)-3,3-dimethylbutanoyl)-4-hydroxy-N-(4-(4-methylthiazol-5-yl)benzyl)pyrrolidine-2-carboxamide] | 0.0063 ± 0.0002 | 100 to 500 | – | – | – |
| CCc1cc2c(cc1N1CCN(C(=O)CCOCCOCCOCCOCCNc3cccc4c3C(=O)N(C3CCC(=O)NC3=O)C4=O)CC1)C(C)(C)c1[nH]c3cc(C#N)ccc3c1C2=O (stereo not drawn) [SIAIS164014, 8-(4-(1-((2-(2,6-dioxopiperidin-3-yl)-1,3-dioxoisoindolin-4-yl)amino)-3,6,9,12-tetraoxapentadecan-15-oyl)piperazin-1-yl)-9-ethyl-6,6-dimethyl-11-oxo-6,11-dihydro-5H-benzo[b]carbazole-3-carbonitrile] | – | 100 to 500 | 0.081 | – | – |
| CCc1cc2c(cc1N1CCN(C(=O)CCCNc3cccc4c3C(=O)N(C3CCC(=O)NC3=O)C4=O)CC1)C(C)(C)c1[nH]c3cc(C#N)ccc3c1C2=O (stereo not drawn) [SIAIS164024, 8-(4-(4-((2-(2,6-dioxopiperidin-3-yl)-1,3-dioxoisoindolin-4-yl)amino)butanoyl)piperazin-1-yl)-9-ethyl-6,6-dimethyl-11-oxo-6,11-dihydro-5H-benzo[b]carbazole-3-carbonitrile] | – | 1 to 10 | 0.0358 | inhibited | reduced the protein level of ALK protein |
| CCc1cc2c(cc1N1CCN(C(=O)CCCCCNc3cccc4c3C(=O)N(C3CCC(=O)NC3=O)C4=O)CC1)C(C)(C)c1[nH]c3cc(C#N)ccc3c1C2=O (stereo not drawn) [SIAIS164026, 8-(4-(6-((2-(2,6-dioxopiperidin-3-yl)-1,3-dioxoisoindolin-4-yl)amino)hexanoyl)piperazin-1-yl)-9-ethyl-6,6-dimethyl-11-oxo-6,11-dihydro-5H-benzo[b]carbazole-3-carbonitrile] | – | 1 to 10 | 0.148 | inhibited | reduced the protein level of ALK protein |
| CCc1cc2c(cc1N1CCN(C(=O)CCOCCOCCC(=O)N[C@H](C(=O)N3C[C@H](O)C[C@H]3C(=O)NCc3ccc(-c4scnc4C)cc3)C(C)(C)C)CC1)C(C)(C)c1[nH]c3cc(C#N)ccc3c1C2=O [SIAIS164036, (2S,4R)-1-((S)-2-(3-(2-(3-(4-(3-cyano-9-ethyl-6,6-dimethyl-11-oxo-6,11-dihydro-5H-benzo[b]carbazol-8-yl)piperazin-1-yl)-3-oxopropoxy)ethoxy)propanamido)-3,3-dimethylbutanoyl)-4-hydroxy-N-(4-(4-methylthiazol-5-yl)benzyl)pyrrolidine-2-carboxamide] | – | 20 to 100 | 0.132 | – | – |
| CCc1cc2c(cc1N1CCN(C(=O)CCCC(=O)N[C@H](C(=O)N3C[C@H](O)C[C@H]3C(=O)NCc3ccc(-c4scnc4C)cc3)C(C)(C)C)CC1)C(C)(C)c1[nH]c3cc(C#N)ccc3c1C2=O [SIAIS164094, (2S,4R)-1-((S)-2-(5-(4-(3-cyano-9-ethyl-6,6-dimethyl-11-oxo-6,11-dihydro-5H-benzo[b]carbazol-8-yl)piperazin-1-yl)-5-oxopentanamido)-3,3-dimethylbutanoyl)-4-hydroxy-N-(4-(4-methylthiazol-5-yl)benzyl)pyrrolidine-2-carboxamide] | – | 20 to 100 | 0.124 | – | – |
